Experimental data reported in PubChem BioAssay AID463229 (Broad Institute, 2010).
Several values for one entry are separate records, joined by “and”; a condition that tells them apart may be missing. Identical values can stand only once. Activity calls are given as the source filed them.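 Rule for the calls: active = compounds raising the signal whose fitted half-maximal concentration is at or below their top tested dose (cut at about 25 µM in these data); inconclusive = flat fit at 30 to 70% activity, or a poor fit; inactive = the rest.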

System: INS-1E rat beta cells, no cytokines, CellTiter-Glo ATP, 48 h
Assay: cytokine-free beta-cell viability effect – INS-1E rat cells, ATP luminescence, cherry pick, counter-screen for beta-cell apoptosis protection project, dose response (AID 463229)

Row | Compound | AC50
1 | CCCCSc1nc2sc3c(c2c(=O)n1-c1ccc(C)cc1)CCN(C)C3 | 22.4 µM
2 | COc1ccccc1N1C(C)=CC(=C(C#N)c2nc3ccccc3s2)C=C1C | 8.66 µM
3 | O=C(Nc1cccc([N+](=O)[O-])c1)c1cc2ccccc2cc1O | 4.38 µM
4 | CCCOc1ccc(Cc2c(Cl)nc(SC)nc2NC)cc1 | 6.05 µM
5 | Cc1ccc(NC(=O)c2cc(S(=O)(=O)NCCC3=CCCCC3)ccc2F)cc1F | 6.58 µM
6 | COC(=O)c1ccc2c(c1)C(C)(C)C(/C=C/c1ccc(OC)c(OC)c1OC)=[N+]2C | 2.16 µM
7 | Cc1ccc2oc(-c3ccc(NC(=O)c4cccnc4)cc3)nc2c1 | 19.1 µM
8 | CCC1CCCCN1C(=O)c1cc(COc2ccc3ncccc3c2)on1 (stereo unspecified) | 2.74 µM
9 | CN(C)S(=O)(=O)c1cccc(NC(=S)N/N=C/c2cc(Br)ccc2O)c1 | 2.72 µM
10 | O=C1C=C(Nc2ccc(O)cc2)C(=O)c2ccccc21 | 13.6 µM
11 | N#Cc1c(N2CCCCC2)nc(N2CCCCC2)c2c1CCN(Cc1ccccc1)C2 | 13.8 µM
12 | CCCC(=O)NC(c1ccc(Cl)cc1)c1ccc2cccnc2c1O (stereo unspecified) | 2.08 µM
13 | O=C(c1cccnc1)N(c1cc2sc(=O)oc2c2ccccc12)S(=O)(=O)c1ccccc1 | 15.5 µM
14 | COc1ccc(NS(=O)(=O)c2ccc(-c3cnc(C4CC4)o3)cc2)cc1OC | 6.58 µM
15 | CC(=O)NN1C(=O)c2ccc3c4c(ccc(c24)C1=O)C(=O)N(NC(C)=O)C3=O | 3.65 µM
16 | Cn1c(=O)[nH]c(=O)c2c1nc(N1CCN(C(c3ccccc3)c3ccccc3)CC1)n2CCO | 10.8 µM
17 | CCn1nc(C)c(CNC(=O)c2ccc(OC3CCN(Cc4ccccn4)CC3)cc2)c1C | 6.9 µM
18 | C/C(=N\NC(=O)c1nnn(-c2nonc2N)c1CN(C)c1ccccc1)c1ccccc1O | 9.18 µM
19 | CC(=O)c1cccc(N=c2scc(-c3ccc(S(=O)(=O)N4CCOCC4)cc3)n2CCO)c1 | 3.22 µM
20 | Oc1ccc(CN2CCc3ccccc3C2)c2cccnc12 | 3.7 µM
21 | Cc1nc2c3cc(F)ccc3n(Cc3ccccc3)c2s1 | > 26 µM (inactive)
22 | O=C(Nc1cc(S(=O)(=O)Nc2ccc(Cl)cc2)ccc1N1CCCCC1)c1ccc(F)cc1 | 7.6 µM
23 | CC(C)(C)c1cc(C(=O)N/N=C/c2ccc([N+](=O)[O-])s2)n[nH]1 | 6.84 µM
24 | C=CCn1cc(/C=C/c2cc[n+](C)cc2)c2ccccc21 | 4.63 µM
25 | C/C(=N\NC(=O)COc1ccccc1-c1ccccc1)c1ccccn1 | 6.13 µM
26 | CC1CCC(C(C)C)C(OC(=O)Cn2c(COc3ccccc3)[n+](C)c3ccccc32)C1 (stereo unspecified) | 7.08 µM

Row | Compound | AC50
27 | O=C(NCCCn1ccnc1)c1ccc(N2CCCCCC2)c([N+](=O)[O-])c1 | 8.09 µM
28 | CN1CCN(C(c2ccc(C(F)(F)F)cc2)c2cc(Cl)c3cccnc3c2O)CC1 (stereo unspecified) | 6.69 µM
29 | O=C(O)c1ccc(S(=O)(=O)/N=C2\C=C(Nc3ccccc3F)C(=O)c3ccccc32)cc1 | 7.91 µM
30 | O=C(Nc1nc2ccc([N+](=O)[O-])cc2s1)c1ccc(S(=O)(=O)N2CCCc3ccccc32)cc1 | 2.63 µM
31 | Nc1c(C(=O)Nc2ccc(S(=O)(=O)N3CCCC3)cc2)sc2nc3ccc(OC(F)(F)F)cc3cc12 | 5.29 µM
32 | CC1Cc2cc(S(=O)(=O)N3CCC(C(=O)N4CCN(c5ccccc5F)CC4)CC3)ccc2N1C(=O)C1CC1 (stereo unspecified) | 8 µM
33 | O=C(NCc1ccccc1)C1=C[C@@H](c2csc3ccccc23)C[C@@H](OCc2ccc(CO)cc2)O1 | 5.16 µM
34 | CC(=O)c1sc(NC(=O)C2(F)C(F)(F)C(F)(F)C(F)(F)C(F)(F)C2(F)F)nc1C | 4.17 µM
35 | Cc1ccc(S(=O)(=O)CC2CSc3nc4ccccc4n32)cc1 (stereo unspecified) | 6.51 µM
36 | Cc1ccc(Nc2c(-c3ccccn3)nc3ccc(C)cn23)cc1 | 7.28 µM
37 | Cc1[nH]n(-c2ccccc2)c(=O)c1/C=N/NC(=O)COc1ccccc1[N+](=O)[O-] | 8.45 µM
38 | COc1ccc(-n2c(=S)[nH]c3cc(C(=O)Nc4ccccc4OC)ccc3c2=O)cc1 | 8.24 µM
39 | Cc1nnc(N=c2ssnc2Cl)o1 | 13.6 µM
40 | COc1ccc(CCNc2ncnc3c2oc2ccccc23)cc1OC | 3.41 µM
41 | O=C(Nc1nc2ccc(F)cc2s1)C1CCN(S(=O)(=O)c2cc([N+](=O)[O-])ccc2Cl)CC1 | 7.01 µM
42 | CCCCCCCCCCOC(=O)Cn1c(COc2cccc(OC)c2)[n+](C)c2ccccc21 | 3.47 µM
43 | Cc1cc(/C=C2/SC(=S)N(c3ccc([N+](=O)[O-])cc3)C2=O)c(C)n1-c1cccnc1 | 0.912 µM
44 | Cc1cnc(NC(=O)CN2CCN(c3ccccn3)CC2)s1 | 4.35 µM
45 | O=C(N/N=C/c1cc([N+](=O)[O-])ccc1O)c1cc(-c2ccccc2)nc2ccccc12 | 5.78 µM
46 | COC(=O)C1=C(C)N(Cc2ccccc2)C(=NCc2cccc(C(F)(F)F)c2)N[C@H]1c1cccc(F)c1 | 8.07 µM
47 | CCCCCCn1c2c(c(=N)c3c1CCC3)CCC2 | 1.88 µM
48 | Nc1cc2c3c(cccc3c1)C(=O)N(CCN1CCCC1)C2=O | 12.7 µM
49 | Cc1sc2ncnc(NCC(C)(C)N3CCOCC3)c2c1C | 6.11 µM
50 | COc1ccc(OC)c(NC(=O)CSc2ncnc3c2cnn3-c2ccccc2Cl)c1 | 2.31 µM
51 | COc1ccc(NS(=O)(=O)c2ccc(N3CCCCC3)c(N)c2)cc1 | 4.75 µM
52 | NC(=NCCCCCCN=C(N)/N=C(\N)Nc1ccc(Cl)cc1)/N=C(\N)Nc1ccc(Cl)cc1 | 5 µM and 5.71 µM

Row | Compound | AC50
53 | CC(CC(=O)N1CCN(c2cccc(Cl)c2)CC1)S(=O)(=O)c1ccc2c(c1)NC(=O)CO2 (stereo unspecified) | 7.1 µM
54 | Cc1ccc(NS(=O)(=O)c2ccc(Cl)c(NC(=S)NC(=O)C3CCCCC3)c2)cc1Cl | 14 µM
55 | O=C(N/N=C/c1ccc[nH]1)c1ccc(COc2cccc3cccnc23)cc1 | 1.92 µM
56 | O=C(NNC(=O)c1ccccc1OCc1ccc(F)cc1)c1ccccc1O | 13.6 µM
57 | CCc1ccc2[nH]c3nc(N/N=C/c4ccc(O)cc4O)nnc3c2c1 | 21.2 µM
58 | Fc1ccc(C[n+]2c(-c3ccccc3)cc(-c3ccccc3)cc2-c2ccccc2)cc1 | 3.99 µM
59 | CCCCCCCCCCn1c2c(c(=N)c3c1CCC3)CCC2 | < 0.195 µM
60 | CCOc1cc(N2CCOCC2)c(OCC)cc1NC(=O)COc1cccc2cccnc12 | 3.61 µM
61 | O=C(NC1=C(Nc2ccc(Cl)cc2)C(=O)c2ccccc2C1=O)c1ccccc1 | 21.8 µM
62 | COc1cc2ccccc2cc1C(=O)Nc1sc2c(c1C(N)=O)CCN(C(C)C)C2 | 9.16 µM
63 | O=c1c2c(nc3c(-c4ccc(Cl)cc4)c[nH]n13)CCCC2 | 7.43 µM
64 | Cc1ccc(S(=O)(=O)N2CCOCC2)cc1C(=O)Nc1nc(-c2ccccn2)cs1 | 7.77 µM
65 | CCCCCc1ccc(-c2cn(CN3C(=O)c4ccccc4C3=O)nn2)cc1 | 1.23 µM
66 | Oc1cccc(/C=N/Nc2ccc(Cl)nn2)c1O | 4.69 µM
67 | C=CCCc1ccc(C#N)c(SCc2c(C(=O)OCC)c3cc(OC(C)=O)c(Br)cc3n2C)n1 | 1.07 µM
68 | Cc1nc(C)c(C(=O)N/N=C/c2cc(Br)ccc2O)s1 | 7.57 µM
69 | C=CCc1cccc(/C=N/NC(=O)CCC(=O)Nc2ccc(F)cc2)c1O | 10.2 µM
70 | Oc1ccc2ccccc2c1N=Nc1nccs1 | 6.54 µM
71 | CCn1c(=O)c(C(=O)Nc2nc3ccccc3[nH]2)c(O)c2ccccc21 | 6.03 µM
72 | COC(=O)c1ccccc1NC1=C/C(=N\S(=O)(=O)c2cccs2)c2ccccc2C1=O | 8.33 µM
73 | C=CCSc1nsc(NC(=O)Nc2ccc(F)cc2)n1 | 3.4 µM
74 | Cc1ccc(-c2nc(NC(=O)c3nn(C)cc3[N+](=O)[O-])sc2C)cc1 | 5.47 µM
75 | CC1CCc2c(sc3nc(C(C)(C)C)nc(N4CCN(C(=O)CCl)CC4)c23)C1 (stereo unspecified) | 7.59 µM
76 | CN1/C(=C\C(=O)C[n+]2cccc(Br)c2)C(C)(C)c2ccccc21 | 5.88 µM
